Assay results taken from ChEMBL document CHEMBL1201862, “PubChem BioAssay data set” (2004).
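Briefly, cells in 96-well plates were exposed to five compound concentrations for 48 h, and endpoints were estimated by linear interpolation. GI50 = concentration required for 50% inhibition of growth.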 Calls of active or inactive are those of the source. No stated cut-off is given here; in the data, active = GI50 up to about 1.1 µM and inactive = higher.

Columns and labels:
Assay in all cases: NCI-60 cell line screen, 48 h
[1] = tested on: 786-0
[2] = tested on: OVCAR-4
[3] = tested on: RXF 393
[4] = tested on: SF-295
[5] = tested on: COLO 205
[6] = tested on: MOLT-4
[7] = tested on: DU-145
[8] = tested on: NCI-H23
[9] = tested on: SW-620
[10] = tested on: HCT-15
[11] = tested on: A549
[12] = tested on: OVCAR-5
[13] = tested on: LOX IMVI
[14] = tested on: HCT-116
[15] = tested on: CAKI-1
[16] = tested on: PC-3
[17] = tested on: SF-268
[18] = tested on: NCI-H460
[19] = tested on: DMS-273

SMILES | GI50 [1] | GI50 [2] | GI50 [3] | GI50 [4] | GI50 [5] | GI50 [6] | GI50 [7] | GI50 [8] | GI50 [9] | GI50 [10] | GI50 [11] | GI50 [12] | GI50 [13] | GI50 [14] | GI50 [15] | GI50 [16] | GI50 [17] | GI50 [18] | GI50 [19]
CC[C@]1(Cc2ccc(OC)c(OC)c2)C=[N+]([O-])O[C@H](OC2CCCC2(c2ccccc2)c2ccccc2)[C@@H]1OC(=O)C(C)(C)C (some centres undefined) | 2.05 µM (inactive) | 3.27 µM (inactive) | 1.63 µM (inactive) | 3.47 µM (inactive) | 2.6 µM (inactive) | 2.76 µM (inactive) | 2 µM (inactive) | 3.6 µM (inactive) | 10.1 µM (inactive) | 3.08 µM | 3.11 µM (inactive) | 8.71 µM (inactive) | 1.95 µM (inactive) | 1.98 µM (inactive) | 4.19 µM (inactive) | 3.69 µM (inactive) | 3.15 µM (inactive) | 2.69 µM (inactive) | 
Cc1ccc(S(=O)(=O)NC(=O)NNc2ccc(F)cc2)cc1 | > 100 µM (inactive) | > 100 µM (inactive) | > 100 µM (inactive) | > 100 µM (inactive) | > 100 µM (inactive) | > 100 µM (inactive) | > 100 µM (inactive) | > 10 µM (inactive) | > 100 µM (inactive) | > 100 µM | > 100 µM (inactive) | > 100 µM (inactive) | > 100 µM (inactive) | > 100 µM (inactive) | > 100 µM (inactive) | > 100 µM (inactive) | > 100 µM (inactive) | > 100 µM (inactive) | 
O=C(O)C1CCCN1Cc1cc2ccccc2c2ccccc12 (centres undefined) | > 100 µM (inactive) | > 100 µM (inactive) | > 100 µM (inactive) | > 100 µM (inactive) | > 100 µM (inactive) | > 100 µM (inactive) | > 100 µM (inactive) | > 100 µM (inactive) | > 100 µM (inactive) | > 100 µM | > 100 µM (inactive) | > 100 µM (inactive) | > 100 µM (inactive) | > 100 µM (inactive) | > 100 µM (inactive) | > 100 µM (inactive) | > 100 µM (inactive) | > 100 µM (inactive) | 
O=C(c1ccccc1)c1ccc2cccc(O)c2n1 | 15.8 µM (inactive) | 67.8 µM (inactive) | 16.4 µM (inactive) | 18.7 µM (inactive) | 37.5 µM (inactive) | 5.27 µM (inactive) |  | 22.6 µM (inactive) | 13.5 µM (inactive) | 23.6 µM | 33 µM (inactive) | 60.8 µM (inactive) | 11.9 µM (inactive) | 6.14 µM (inactive) | 76.4 µM (inactive) |  | 27.5 µM (inactive) |  | 28.4 µM (inactive)
Nc1nc(Cl)c(CO)c(NCC2(CO)CC(CCc3ccccc3)C2)n1 (centres undefined) | 31.8 µM (inactive) | 14.4 µM (inactive) | 20.9 µM (inactive) | 10.6 µM (inactive) | 14.5 µM (inactive) | 2.1 µM (inactive) | 22.6 µM (inactive) | 0.0951 µM (active) | 19.6 µM (inactive) | 20.6 µM | 18.6 µM (inactive) | 29.2 µM (inactive) | 12.5 µM (inactive) | 0.979 µM (active) | 37.8 µM (inactive) | 51.3 µM (inactive) | 43.1 µM (inactive) | 13.1 µM (inactive) | 
CC(=O)CC(=O)Nn1c(-c2cccs2)nc2ccc(I)cc2c1=O | > 65.9 µM (inactive) | > 100 µM (inactive) | > 68.9 µM (inactive) | > 54.7 µM (inactive) | > 51.4 µM (inactive) | > 70.1 µM (inactive) | > 38.1 µM (inactive) | > 49 µM (inactive) | > 52.7 µM (inactive) | > 57.7 µM | > 64.3 µM (inactive) | > 55.1 µM (inactive) | > 46.5 µM (inactive) | > 60.1 µM (inactive) | > 47.3 µM (inactive) | > 51.5 µM (inactive) | > 47.3 µM (inactive) | > 56.1 µM (inactive) | 
CC(=O)O[C@H]1C(=O)[C@@]2(C)[C@H]([C@H](OC(=O)c3ccccc3)[C@]3(O)C[C@H](OC(=O)[C@H](O)[C@@H](NC(=O)C(C)(C)C)c4ccccc4)C(C)=C1C3(C)C)[C@]1(OC(C)=O)CO[C@@H]1C[C@@H]2O | 0.324 µM (active) | > 10 µM (inactive) | 0.188 µM (active) | 0.29 µM (active) | 0.0444 µM (active) | 0.0454 µM (active) | 0.106 µM (active) | 0.075 µM (active) | 0.0459 µM (active) | 1.41 µM | 0.0809 µM (active) | 0.508 µM (active) | 0.0542 µM (active) | 0.0322 µM (active) | 1.56 µM (inactive) | 0.0565 µM (active) | 0.168 µM (active) | 0.0955 µM (active) | 
